# Experimental data taken from ChEMBL document CHEMBL2021887, “Olean-18-ene triterpenoids from Celastraceae species inhibit HIV replication targeting NF-kB and Sp1 dependent transcription” (Eur J Med Chem, 2012).
# Activity calls are given as the source filed them. The calls are words filed in the database; no cut-off is given here.
# Experiments:
# [1] = test system: Human immunodeficiency virus 1; assay: Antiviral activity against X4 tropic HIV1 pNL4.3-Ren infected in human MT2 cells at 10 uM dosed simultaneously with virus infection measured 48 hrs post-infection by recombinant virus assay; format: functional; conditions: Human immunodeficiency virus 1, pNL4.3-Ren, MT2, 48 h; values are per cent of control
# MT2 [2] = assay: Cytotoxicity against non-infected human MT2 cells at 10 uM after 48 hrs by CellTiter Glo assay; format: cell-based; conditions: mt2, 48 h
# [3] = Cytotoxicity against non-infected human MT2 cells after 48 hrs by CellTiter Glo assay; format: cell-based
# [4] = test system: Human immunodeficiency virus 1; assay: Antiviral activity against luciferase tagged VSV envelope pseudotyped HIV1 infected in human MT2 cells dosed simultaneously with virus infection measured 48 hrs post-infection by recombinant virus assay; format: functional, organism-based; conditions: Human immunodeficiency virus 1, MT2, 48 h
# [5] = test system: Human immunodeficiency virus 1; assay: Antiviral activity against X4 tropic HIV1 pNL4.3-Ren infected in human MT2 cells dosed simultaneously with virus infection measured 48 hrs post-infection by recombinant virus assay; format: functional, organism-based; conditions: Human immunodeficiency virus 1, pNL4.3-Ren, MT2, 48 h
# [6] = test system: Human immunodeficiency virus 1; assay: Inhibition of viral transcription in X4 tropic HIV1 pNL4.3-Luc transfected human MT2 cells at 20 uM dosed post transfection and measured 24 hrs post compound dose by luciferase reporter gene assay; format: functional; conditions: Human immunodeficiency virus 1, pNL4.3-Luc, MT2, 24 h; read-out: INH
# MT2 [7] = assay: Inhibition of Sp1 transcription in X4 tropic HIV1 pNL4.3-Luc transfected human MT2 cells at 20 uM dosed post transfection and measured 24 hrs post compound dose by luciferase reporter gene assay; format: functional
# MT2 [8] = assay: Inhibition of NFkappaB transcription in X4 tropic HIV1 pNL4.3-Luc transfected human MT2 cells at 20 uM dosed post transfection and measured 24 hrs post compound dose by luciferase reporter gene assay; format: functional
Structure (SMILES),residual activity at 10 µM [1] [%],Activity (MT2 [2]) [%],CC50 at 48 h [3] [µM],IC50 [4] [µM],IC50 [5] [µM],percent inhibition at 20 µM [6] [%],inhibition (MT2 [7]),inhibition (MT2 [8])
CC(=O)O[C@H]1CC[C@]2(C)[C@H]3CC[C@@H]4C5=CC(C)(C)[C@H](OC(C)=O)C[C@]5(C)CC[C@@]4(C)[C@]3(C)CC[C@H]2C1(C)C,107,93,–,–,–,–,–,–
CC1(C)C=C2[C@H]3C[C@@H](O)[C@@H]4[C@@]5(C)CC[C@H](O)C(C)(C)[C@@H]5CC[C@@]4(C)[C@]3(C)CC[C@@]2(CO)CC1,78,–,–,–,–,–,–,–
CC1(C)C=C2[C@H]3CC[C@@H]4[C@@]5(C)CC[C@H](O)C(C)(C)[C@@H]5[C@H](O)C[C@@]4(C)[C@]3(C)CC[C@@]2(C)CC1,1,5,25.5,4.32,11.6,–,–,–
CC1(C)C=C2[C@H]3C[C@@H](O)[C@@H]4[C@@]5(C)CC[C@H](O)C(C)(C)[C@@H]5CC[C@@]4(C)[C@]3(C)CC[C@@]2(C)CC1 [NIVADIOL],121,–,–,–,–,–,–,–
CC1(C)C(=O)CC[C@]2(C)[C@H]3CC[C@@H]4C5=C[C@](C)(CO)CC[C@]5(C)CC[C@@]4(C)[C@]3(C)C[C@@H](O)[C@@H]12,16,62,> 100,20,65.6,< 50,Active,Active
CC(=O)OC[C@@]1(C)C=C2[C@H]3CC[C@@H]4[C@@]5(C)CCC(=O)C(C)(C)[C@@H]5CC[C@@]4(C)[C@]3(C)CC[C@@]2(C)CC1,116,116,–,–,–,–,–,–
CC1(C)C=C2[C@H]3CC[C@@H]4[C@@]5(C)CCC(=O)C(C)(C)[C@@H]5CC[C@@]4(C)[C@]3(C)CC[C@@]2(C)CC1=O,14,222,> 100,3.2,4.04,< 50,Active,Active
CC1(C)C=C2[C@H]3CC[C@@H]4[C@@]5(C)CC[C@H](O)C(C)(C)[C@@H]5CC[C@@]4(C)[C@]3(C)CC[C@@]2(C)C[C@H]1O,18,69,> 100,54.3,64.4,< 50,Active,Active
CC1(C)C=C2[C@H]3CC[C@@H]4[C@@]5(C)CCC(=O)C(C)(C)[C@@H]5[C@H](O)C[C@@]4(C)[C@]3(C)CC[C@@]2(C)CC1,28,222,> 100,5.14,23.8,< 50,Active,Active
CC1(C)C=C2[C@H]3CC[C@@H]4[C@@]5(C)CC[C@H](O)C(C)(C)[C@@H]5CC[C@@]4(C)[C@]3(C)CC[C@@]2(C)CC1 [GERMANICOL],86,–,–,–,–,–,–,–
CC1(C)C=C2[C@H]3CC[C@@H]4[C@@]5(C)CCC(=O)C(C)(C)[C@@H]5CC[C@@]4(C)[C@]3(C)CC[C@@]2(C)C[C@H]1O,22,74,> 100,20,20,< 50,Active,Active
CC1(C)C=C2[C@H]3CC[C@@H]4[C@@]5(C)CCC(=O)C(C)(C)[C@@H]5CC[C@@]4(C)[C@]3(C)CC[C@@]2(C)CC1 [GERMANICONE],84,–,–,–,–,–,–,–
CC1(C)[C@@H](O)CC[C@]2(C)[C@H]3CC[C@@H]4C5=C[C@](C)(CO)CC[C@]5(C)CC[C@@]4(C)[C@]3(C)CC[C@@H]12,17,67,> 100,6.56,10.4,< 50,Active,Active
CC(=O)O[C@H]1CC[C@]2(C)[C@H]3CC[C@@H]4C5=CC(C)(C)CC[C@]5(C)CC[C@@]4(C)[C@]3(C)C[C@@H](O)[C@H]2C1(C)C,102,124,–,–,–,–,–,–
CC1(C)C(=O)CC[C@]2(C)[C@H]3CC[C@@H]4C5=C[C@](C)(CO)CC[C@]5(C)CC[C@@]4(C)[C@]3(C)CC[C@@H]12,50,–,–,–,–,–,–,–
